This is an account of results in ChEMBL document CHEMBL1201862, “PubChem BioAssay data set” (2004).

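1) Cells in 96-well plates. 2) Compound, 48 h, 5 concentrations. 3) Linear interpolation between surrounding doses. 4) Unreached endpoint = highest concentration. Abbreviation: GI50, concentration required for 50% inhibition of growth.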 The source made the active and inactive calls. Cut-off read from the data, not from the text of the source: active = GI50 up to about 1.1 µM and inactive = higher.

Some test systems named below: SK-MEL-28; SR; TK-10; MDA-N; HL-60; A498; COLO 205; OVCAR-8; K562; UACC-257; PC-3; A549; OVCAR-3; SW-620; HCT-15; HOP-92; LOX IMVI; KM12; NCI/ADR-RES; HCC 2998.
Holding throughout (experiment): NCI-60 cell line screen, 48 h

In the case of `CC12CCC(=O)C=C1CCC1C2CCC2(C)C(C(=O)Cn3cnc4c(=S)nc[nH]c43)CCC12` (stereo not given), the GI50 is > 100 µM (inactive) in the test with SK-MEL-28; 27.4 µM (inactive) in the test on SR; 36 µM (inactive) with TK-10; 39.2 µM (inactive) in the test on MDA-N; 33.3 µM (inactive) with HL-60; 29.9 µM (inactive) with A498. Also, the GI50 is 42 µM (inactive) with COLO 205; 27.5 µM (inactive) in the test with OVCAR-8; 48.3 µM (inactive) in the test with K562; 35.6 µM (inactive) with UACC-257; 63.7 µM (inactive) in the test on PC-3; 48.1 µM (inactive) in the test with A549. The GI50 in the test on OVCAR-3 is 18.2 µM (inactive); with SW-620, 76.2 µM (inactive); in the test with HCT-15, 58.6 µM; in the test on HOP-92, 10 µM (inactive); in the test with LOX IMVI, 24.3 µM (inactive); in the test with KM12 it was 37.9 µM (inactive). In addition, the GI50 in the test with NCI/ADR-RES is 62.4 µM (inactive).
As for `Cc1cc2nc3[nH]c4c(Cl)cc(Cl)cc4c3nc2cc1C`, the GI50 in the test with SK-MEL-28 was > 100 µM (inactive); in the test with SR, 96.8 µM (inactive); in the test with TK-10 it was 17.3 µM (inactive); in the test on MDA-N, > 100 µM (inactive); in the test with HL-60 it was > 100 µM (inactive); in the test on A498, > 100 µM (inactive). Further, the GI50 in the test with COLO 205, with OVCAR-8, in the test on K562, in the test on PC-3, in the test on A549 and in the test on OVCAR-3 was > 100 µM (inactive) throughout. The GI50 was > 100 µM (inactive) in the test with SW-620; over 100 µM in the test with HCT-15; > 100 µM (inactive) in the test on HOP-92; > 100 µM (inactive) in the test on LOX IMVI; > 100 µM (inactive) with KM12; > 100 µM (inactive) in the test on NCI/ADR-RES.
Regarding `Cc1nnc(N)nc1C/C=C/C(C)Sc1ccc(Cl)cc1` (stereo not given), the GI50 with SK-MEL-28 was 12.3 µM (inactive); with TK-10, 15 µM (inactive); in the test on MDA-N it was 14.4 µM (inactive); in the test with HL-60, 3.89 µM (inactive); in the test on A498 it was 6.32 µM (inactive); in the test on COLO 205, 19.1 µM (inactive). In addition, the GI50 in the test with OVCAR-8 is 16.5 µM (inactive); with K562, 9.73 µM (inactive); in the test on UACC-257, 10.8 µM (inactive); with PC-3, 4.35 µM (inactive); in the test on A549, 7 µM (inactive); in the test with SW-620, 9.04 µM (inactive). Also, the GI50 in the test on HCT-15 was 12.8 µM; in the test on HOP-92, 11.4 µM (inactive); with LOX IMVI, 4.4 µM (inactive); in the test with HCC 2998, 14.4 µM (inactive); in the test on KM12, 4.7 µM (inactive); in the test on NCI/ADR-RES it was 9.79 µM (inactive).
For the compound `Cn1c(=O)c2c(nc3n(CC(O)CCl)c(=O)ccn23)n(C)c1=O` (stereo not given), the GI50 in the test with SK-MEL-28 is 66.7 µM (inactive); in the test on TK-10, 89.3 µM (inactive); with MDA-N, 35.2 µM (inactive); with HL-60, 15.5 µM (inactive); in the test with A498 it was 54.5 µM (inactive); in the test with COLO 205 it was 36.8 µM (inactive). The GI50 was 18.7 µM (inactive) with OVCAR-8; 39.2 µM (inactive) in the test on K562; 76.6 µM (inactive) in the test on UACC-257; > 100 µM (inactive) in the test with PC-3; 64 µM (inactive) in the test with A549; 77.1 µM (inactive) in the test with OVCAR-3. Also, the GI50 in the test on SW-620 was 46.8 µM (inactive); in the test on HCT-15, 34.9 µM; in the test with HOP-92, 45.9 µM (inactive); with LOX IMVI, 29.1 µM (inactive); in the test on HCC 2998, 58.7 µM (inactive); in the test with KM12 it was 19.9 µM (inactive). The GI50 in the test on NCI/ADR-RES is 19.3 µM (inactive).
For `COC(=O)c1cc(O)c(O)c(O)c1-c1c(O)c(O)c(O)c(SC[C@H](NC(=O)OCc2ccccc2)C(=O)OCc2ccccc2)c1C(=O)OC`, the GI50 in the test with SK-MEL-28 was 30.1 µM (inactive); with TK-10, 67.9 µM (inactive); in the test with MDA-N, 19.8 µM (inactive); in the test with HL-60 it was 15.1 µM (inactive); with A498, 31.5 µM (inactive); with COLO 205, 22.6 µM (inactive). The GI50 with OVCAR-8 is 21.2 µM (inactive); in the test with K562, 19.6 µM (inactive); in the test on UACC-257 it was 32.8 µM (inactive); with PC-3, 22.6 µM (inactive); in the test on A549, 17.9 µM (inactive); in the test with OVCAR-3, 34 µM (inactive). Further, the GI50 is 23.8 µM (inactive) with SW-620; 27.5 µM in the test on HCT-15; 26.2 µM (inactive) in the test on HOP-92; 17.9 µM (inactive) with LOX IMVI; 24.1 µM (inactive) in the test on HCC 2998; 31.9 µM (inactive) in the test with KM12. In the test with NCI/ADR-RES, the GI50 was 35 µM (inactive).
Take `CC(C)c1ccc(/C=C2\CSCC3=C2N=C(S)NC3c2ccc(C(C)C)cc2)cc1` (stereo not given): the GI50 with SK-MEL-28 is > 100 µM (inactive); in the test on SR it was 53.3 µM (inactive); with TK-10 it was > 100 µM (inactive); in the test with MDA-N, > 100 µM (inactive); in the test on HL-60, 59.2 µM (inactive); with COLO 205, > 100 µM (inactive). Further, the GI50 was > 100 µM (inactive) with OVCAR-8; 34.8 µM (inactive) with K562; 34.6 µM (inactive) in the test with UACC-257; 28.9 µM (inactive) in the test with PC-3; 80.9 µM (inactive) with A549; > 100 µM (inactive) in the test on OVCAR-3. The GI50 in the test with SW-620 is > 100 µM (inactive); in the test with HCT-15, 89.5 µM; with HOP-92 it was 68.5 µM (inactive); in the test with LOX IMVI, 51.6 µM (inactive); in the test with HCC 2998, 67.6 µM (inactive); in the test on KM12, > 100 µM (inactive). Also, the GI50 with NCI/ADR-RES was > 100 µM (inactive).
For `CCOc1ccc2nc(NC(=O)C(=O)C(c3cnc4ccccc4n3)[N+](=O)[O-])sc2c1` (stereo not given), the GI50 in the test with TK-10 was > 100 µM (inactive); in the test on MDA-N, > 100 µM (inactive); in the test on HL-60, 56.2 µM (inactive); in the test with A498, > 100 µM (inactive); in the test with OVCAR-8 it was 53.5 µM (inactive); in the test on K562 it was 98.2 µM (inactive). The GI50 in the test on UACC-257 was > 100 µM (inactive); in the test with PC-3, > 100 µM (inactive); in the test on A549 it was > 100 µM (inactive); in the test with OVCAR-3, > 100 µM (inactive); in the test on HCT-15, over 100 µM; in the test on HOP-92 it was > 100 µM (inactive). Moreover, the GI50 with LOX IMVI is 61 µM (inactive); in the test on HCC 2998 it was > 100 µM (inactive); in the test on KM12, > 100 µM (inactive); in the test with NCI/ADR-RES, > 100 µM (inactive).
As to `O=C1NC(NNc2ccccc2)=N/C1=C\c1ccco1`, the GI50 in the test on SK-MEL-28 is 25.4 µM (inactive); in the test on TK-10, 18.3 µM (inactive); in the test with MDA-N it was 26.9 µM (inactive); in the test on HL-60, 20.3 µM (inactive); with A498, 46.8 µM (inactive); with COLO 205 it was 12.6 µM (inactive). The GI50 in the test on OVCAR-8 is 17.6 µM (inactive); in the test on UACC-257, 21.1 µM (inactive); with PC-3, 19.3 µM (inactive); in the test on A549, 46.5 µM (inactive); with OVCAR-3 it was 17.5 µM (inactive); with SW-620, 18.1 µM (inactive). For the same compound, the GI50 with HCT-15 is 16 µM; in the test on HOP-92 it was 14.8 µM (inactive); in the test with HCC 2998, 17.6 µM (inactive); with KM12, 11.2 µM (inactive); in the test on NCI/ADR-RES it was 26.2 µM (inactive).
